Row | Compound | solubility (mole fraction) (in ethanol, 278 K) | solubility (mole fraction) (in ethanol, 283 K) | solubility (mole fraction) (in ethanol, 288 K) | solubility (mole fraction) (in ethanol, 293 K) | solubility (mole fraction) (in ethanol, 298 K) | solubility (mole fraction) (in ethanol, 303.2 K) | solubility (mole fraction) (in ethanol, 308 K) | solubility (mole fraction) (in ethanol, 313 K) | solubility (mole fraction) (in ethanol, 318 K) | solubility (mole fraction) (in ethanol, 323 K) | solubility (mole fraction) (in n-propanol, 278 K) | solubility (mole fraction) (in n-propanol, 283 K) | solubility (mole fraction) (in n-propanol, 288 K) | solubility (mole fraction) (in n-propanol, 293 K) | solubility (mole fraction) (in n-propanol, 298 K) | solubility (mole fraction) (in n-propanol, 303.1 K) | solubility (mole fraction) (in n-propanol, 308.2 K) | solubility (mole fraction) (in n-propanol, 313 K) | solubility (mole fraction) (in n-propanol, 318 K) | solubility (mole fraction) (in n-propanol, 323 K) | other results
1 | Cc1ccc(S(=O)(=O)[N-]Cl)cc1.[Na+] | 0.02 | 0.0221 | 0.0244 | 0.0268 | 0.0299 | 0.034 | 0.0388 | 0.0441 | 0.0499 | 0.0564 | 0.00503 | 0.00636 | 0.00776 | 0.00932 | 0.0109 | 0.013 | 0.0156 | 0.0191 | 0.0235 | 0.0291 | solubility (mole fraction) (in sec-butanol, 278 K): 0.00101; solubility (mole fraction) (in sec-butanol, 283 K): 0.00135; solubility (mole fraction) (in sec-butanol, 288 K): 0.00201; solubility (mole fraction) (in sec-butanol, 293 K): 0.00322; solubility (mole fraction) (in sec-butanol, 298.4 K): 0.00464; solubility (mole fraction) (in sec-butanol, 303.2 K): 0.00595; solubility (mole fraction) (in sec-butanol, 308 K): 0.00723; solubility (mole fraction) (in sec-butanol, 313 K): 0.00881; solubility (mole fraction) (in sec-butanol, 318 K): 0.0114; solubility (mole fraction) (in sec-butanol, 323 K): 0.0141; solubility (mole fraction) (in water, 278 K): 0.00684; solubility (mole fraction) (in water, 283 K): 0.008; solubility (mole fraction) (in water, 288 K): 0.00955; solubility (mole fraction) (in water, 293 K): 0.0114; solubility (mole fraction) (in water, 298 K): 0.0138; solubility (mole fraction) (in water, 303.1 K): 0.0171; solubility (mole fraction) (in water, 308.2 K): 0.0218; solubility (mole fraction) (in water, 313 K): 0.0284; solubility (mole fraction) (in water, 318 K): 0.037; solubility (mole fraction) (in water, 323 K): 0.0477
2 | O=S(=O)([N-]Cl)c1ccccc1.[Na+] | 0.0164 | 0.0193 | 0.0224 | 0.0264 | 0.031 | 0.0364 | 0.0422 | 0.0486 | 0.0561 | 0.066 | 0.00195 | 0.00348 | 0.00536 | 0.00778 | 0.0106 | 0.0142 | 0.0188 | 0.0245 | 0.0307 | 0.0378 | solubility (mole fraction) (in sec-butanol, 278 K): 0.00185; solubility (mole fraction) (in sec-butanol, 283 K): 0.00228; solubility (mole fraction) (in sec-butanol, 288 K): 0.00287; solubility (mole fraction) (in sec-butanol, 293 K): 0.00383; solubility (mole fraction) (in sec-butanol, 298.4 K): 0.00481; solubility (mole fraction) (in sec-butanol, 303.2 K): 0.00585; solubility (mole fraction) (in sec-butanol, 308 K): 0.00706; solubility (mole fraction) (in sec-butanol, 313 K): 0.0091; solubility (mole fraction) (in sec-butanol, 318 K): 0.0117; solubility (mole fraction) (in sec-butanol, 323 K): 0.015; solubility (mole fraction) (in water, 278 K): 0.0074; solubility (mole fraction) (in water, 283 K): 0.00829; solubility (mole fraction) (in water, 288 K): 0.0102; solubility (mole fraction) (in water, 293 K): 0.0127; solubility (mole fraction) (in water, 298 K): 0.0158; solubility (mole fraction) (in water, 303.1 K): 0.0192; solubility (mole fraction) (in water, 308.2 K): 0.0241; solubility (mole fraction) (in water, 313 K): 0.0316; solubility (mole fraction) (in water, 318 K): 0.0421; solubility (mole fraction) (in water, 323 K): 0.0554
